According to EP0000804A1, “Process for the preparation of ethers of clavulanic acid” (BEECHAM GROUP PLC, priority 1977, dated 1979):
Values after ≈ are worked out from the molar mass of the structure shown.

Experiments:
Experiment in all cases: Minimum inhibitory concentration (MIC) in vitro, β-lactamase inhibitory activity demonstration
Format in all cases: cell-based
[1] = system: E. coli JT39; details: Escherichia coli, compound alone, no ampicillin, read-out: MIC EC, Compound alone
Procedure: (§1) The minimum inhibitory concentrations (MIC) of certain compounds of this invention and of ampicillin, alone or in the presence of compounds of the invention, were determined in vitro for a range of micro-organisms.

[2] = system: Klebsiella aerogenes E70; details: compound alone, no ampicillin, read-out: MIC KA, Compound alone
Procedure: as §1

[3] = system: Proteus mirabilis C889; details: compound alone, no ampicillin
Procedure: as §1

[4] = system: Staphylococcus aureus Russell; details: compound alone, no ampicillin, read-out: MIC SAR, Compound alone
Procedure: as §1

Row | Compound | MIC [1] | MIC [2] | MIC [3] | MIC [4]
1 | C=COC/C=C1\O[C@@H]2CC(=O)N2[C@H]1C(=O)O [Example 10, Lithium 9-0-vinyl-clavulanate] | 31.2 µg/mL (≈ 139 µM) | 31.2 µg/mL (≈ 139 µM) | 62.5 µg/mL (≈ 278 µM) | 15.6 µg/mL (≈ 69.3 µM)
2 | C=COC/C=C1\O[C@@H]2CC(=O)N2[C@H]1C(=O)OC [Example 8, Methyl 9-0-vinylclavulanate] | 500 µg/mL (≈ 2090 µM) | 500 µg/mL (≈ 2090 µM) | 250 µg/mL (≈ 1050 µM) | 125 µg/mL (≈ 523 µM)
